Results published in patent US8691851B2, “Lanthanide metal complexes useful in treating cancer” (National University of Singapore, priority 2009, dated 2014).

Experiments:
[1] = system: MDA-MB-231 breast cancer cells; details: high PPARγ expressing cells, 24 hours
Protocol: (§1) To detect breast cancer cell death via cell viability assay, the mitochondrial activity, as an index of cell viability, was measured using the MTT method (Mosmann, T. J Immunol Methods, 1983; 65: 55-63). Briefly, cells were treated in triplicates in 96-well plate. After completion of the experimental period, 20 μl of MTT reagent (5 mg/ml) was added per well of culture (containing 100 μl treatment media). The reaction was allowed to proceed for 4 to 6 h at 37° C. SDS (10%) was then added (200 μl/well) overnight and the absorption at 595 nm measured.

[2] = system: SHEP1 and SHSY5Y neuroblastoma cells; details: 24 hours
Protocol: as §1

[3] = system: SHEP1 cells; details: mPPARg PCMX versus empty vector, 0 to 5 uM
Protocol: as §1

[4] = system: T47D breast cancer cells; details: low PPARγ expressing cells, 24 hours
Protocol: as §1

[5] = molecular target: T1, phosphorylation-defective mutant of PPARγ (GFP-PPARg S82A) (Mus musculus, UniProt P37238, S112A); experiment: 3×PPRE luciferase reporter with phosphorylation-defective mutant PPARγ; format: cell-based; details: SHSY5Y cells, 10 uM, 18 hours
T1 construct: expressed in transfected cells; host or cells: SHSY5Y neuroblastoma cells
T1 sequence (P37238 1-475 isoform P37238-2 S82A): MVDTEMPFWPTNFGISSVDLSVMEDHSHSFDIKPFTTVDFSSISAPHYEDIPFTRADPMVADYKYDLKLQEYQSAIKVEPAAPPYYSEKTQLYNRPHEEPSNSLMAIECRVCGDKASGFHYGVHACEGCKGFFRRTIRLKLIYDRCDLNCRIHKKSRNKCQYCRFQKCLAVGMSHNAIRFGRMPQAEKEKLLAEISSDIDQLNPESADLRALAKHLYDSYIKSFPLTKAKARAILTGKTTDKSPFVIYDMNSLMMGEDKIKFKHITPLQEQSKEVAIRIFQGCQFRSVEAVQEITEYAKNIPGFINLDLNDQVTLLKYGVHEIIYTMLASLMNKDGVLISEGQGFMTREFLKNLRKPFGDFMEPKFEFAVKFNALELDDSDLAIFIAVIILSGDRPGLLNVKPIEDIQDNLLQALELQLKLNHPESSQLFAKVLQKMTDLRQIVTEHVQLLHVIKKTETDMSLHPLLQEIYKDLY
Protocol: SHSY5Y neuroblastoma cells were transiently co-transfected with either a plasmid encoding wild type PPARγ or a phosphorylation-defective mutant of PPARγ (GFP-PPARg S82A), 3×PPRE luciferase plasmid and plasmid encoding renilla for transfection efficiency. Forty eight hours following transfection, cells were exposed to 10 uM of C19H24N3O5S5Pr for 18 hours.

[6] = system: PPARγ; details: SHEP1 cells, 0 to 5 uM, 18 hours
Protocol: To determine if C19H24N3O5S5Pr binds to PPARγ, neuroblastoma SHEP1 cells were transiently co-transfected with either empty vector or a DNA-binding mutant of PPARγ, 3×PPPRE luciferase plasmid and renilla plasmid for transfection efficiency. Forty eight hours following transfection, the cells were exposed to increased concentration (0 to 5 uM) of C19H24N3O5S5Pr for 18 hours. PPARγ activity was calculated as luciferase RLU/renilla/μg total protein.

[7] = system: AIF (apoptosis inducing factor); details: SHEP-1 cells, 5 μM and 10 μM, 24 hr
Protocol: Different concentrations (5 μM and 10 μM) of C19H24N3O5S5Pr (indicated as “Pr-MPO”) were administered into SHEP-1 cancer cells. The detection of AIF in the cytosol and nucleus fractions was determined by Western Blot analysis at 18 hr and 24 hr of treatment with C19H24N3O5S5Pr.

[8] = system: HCT-116 colorectal tumor cells
Protocol: HCT-116 colorectal tumor cells were grafted subcutaneously onto nude mice. Tumor-bearing mice were then treated with solvent control (water) or different concentrations of (100 μg, 200 μg) C19H24N3O5S5Pr on day 1, day 5, day 9, day 12, and day 15. Tumor volumes (mm^3) were measured on day 1, day 5, day 8, day 9, day 12, day 14 and day 16. Tumor volumes in treated mice were compared with those of control mice.

[9] = molecular target: T2, PPARγ (Homo sapiens, UniProt P37231); experiment: pPPREx3-TKLuc reporter with PPAR-γ short-hairpin RNA silencing (Method 1); format: cell-based; set-up: endogenous in cells; host or cells: SHSY5Y, SHEP1 / SHEP-1 (neuroblastoma); MDA-MB-231, T47D (breast cancer); details: SHEP-1 cells, 5 uM and 10 uM, 18 hr
T2 sequence (P37231 1-505): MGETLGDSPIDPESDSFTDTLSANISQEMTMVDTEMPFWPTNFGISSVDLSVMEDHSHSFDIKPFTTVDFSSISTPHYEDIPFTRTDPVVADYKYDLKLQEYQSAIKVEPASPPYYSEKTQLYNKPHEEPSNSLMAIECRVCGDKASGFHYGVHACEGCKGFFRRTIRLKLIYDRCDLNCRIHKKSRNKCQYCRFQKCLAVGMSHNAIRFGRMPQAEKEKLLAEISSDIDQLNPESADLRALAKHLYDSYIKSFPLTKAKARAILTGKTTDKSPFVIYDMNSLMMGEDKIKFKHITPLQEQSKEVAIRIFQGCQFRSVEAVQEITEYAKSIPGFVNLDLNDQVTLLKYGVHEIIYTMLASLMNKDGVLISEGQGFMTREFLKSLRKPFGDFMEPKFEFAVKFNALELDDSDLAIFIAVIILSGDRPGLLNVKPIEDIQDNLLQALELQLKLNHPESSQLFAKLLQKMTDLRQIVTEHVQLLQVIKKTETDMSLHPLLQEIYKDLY
Excerpt: In Method 1, a reporter plasmid containing three copies of the PPAR response element (pPPREx3-TKLuc) as illustrated in FIG. 19A and as previously described in Kim et al, Toxicological Sciences, 85, (2005), pp. 585-593, was transfected into SHEP-1 cancer cells. This system directly measures activation of endogenous PPAR via transcriptional activation of the luciferase reporter gene as a result of PPARγ binding to the PPAR response element (PPRE). To determine whether PPARγ receptor is activated by C19H24N3O5S5Pr, the SHEP-1 cancer cells was transiently transfected with either short-hairpin RNA plasmid targeting PPAR-γ protein or short hairpin RNA negative control. The cells were exposed to varying doses (5 uM, 10 uM) of C19H24N3O5S5Pr for 18 hr.

For CS(C)=O.CS(C)=O.[O-][n+]1ccccc1[S-].[O-][n+]1ccccc1[S-].[O-][n+]1ccccc1[S-].[Pr+3] [C19H24N3O5S5Pr, praseodymium (2-mercaptopyridine N-oxide)(dimethylsulfoxide)], the “cell viability (MTT)” value [1] was “inhibits growth”, the “cell viability (MTT), SHEP1 versus SHSY5Y cells” value [2] was “has a greater growth of SHEP1 cells compared to SHSY5Y cells” and the “cell viability on overexpression of wild type PPARγ” value [3] was “greater decrease in cell viability”. For the same molecule, the “cell viability (MTT)” value [4] was “remained viable”, the “activation of phosphorylation-defective mutant PPARγ versus wild type” value [5] was “significant activation of phosphorylation-defective mutant PPARγ” and the “PPARγ activation on overexpression of DNA-binding mutant PPARγ” value [6] was “significantly reduced the ability of C19H24N3O5S5Pr to activate PPARγ”. The AIF translocation [7] was “AIF was translocated into the nucleus”, the “tumor size compared to control mice” value ([8]; 100 μg or 200 μg on day 1, 5, 9, 12 and 15, measured to day 16) was “did not show a substantial increase in tumor size” and the “tumor growth suppression/inhibition versus control mice” value ([8]; 200 μg) was “at least 3 fold”. For the same molecule, the “tumor activity suppressed/inhibited, 200 μg versus 100 μg” value ([8]; dosage increased from 100 μg to 200 μg) was “at least 2 fold” and the “luciferase activity upon silencing of PPARγ protein” value [9] was “luciferase activity was abrogated”.
